{
  "source": "the supplement of paper PMC10307832",
  "assay_in_all_cases": "relative viability (nuclei count vs DMSO), 5 days (fraction); higher = more cells survive",
  "key": {"CUDC-101 + Foretinib": {"compound": "C#Cc1cccc(Nc2ncnc3cc(OC)c(OCCCCCCC(=O)NO)cc23)c1 [CUDC-101] + COc1cc2c(Oc3ccc(NC(=O)C4(C(=O)Nc5ccc(F)cc5)CC4)cc3F)ccnc2cc1OCCCN1CCOCC1 [Foretinib] (partner 0.25 µM)", "procedure,_shortened": "(§1)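 Dosing by pin tool came one day after lung cancer cell lines were seeded in 1536-well plates, using either one drug or a fixed anchor-drug dose plus five library-drug doses (not always all listed) in √10 steps. After 5 days, nuclei were counted on 4× images. Relative viability is treated-well nuclei count divided by vehicle-well nuclei count, and values are medians of duplicate plates.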"}, "[1]": {"compound": "C1=CC=C2C(=C1)N=C(S2)C(C#N)C3=NC(=NC=C3)NCCC4=CN=CC=C4 + CS(=O)(=O)CCNCc1ccc(-c2ccc3ncnc(Nc4ccc(OCc5cccc(F)c5)c(Cl)c4)c3c2)o1 [Lapatinib] (partner 2 µM)", "procedure,_shortened": "as §1"}, "NVP-TAE684 + Lapatinib": {"compound": "COc1cc(N2CCC(N3CCN(C)CC3)CC2)ccc1Nc1ncc(Cl)c(Nc2ccccc2S(=O)(=O)C(C)C)n1 [NVP-TAE684] + CS(=O)(=O)CCNCc1ccc(-c2ccc3ncnc(Nc4ccc(OCc5cccc(F)c5)c(Cl)c4)c3c2)o1 [Lapatinib] (partner 2 µM)", "procedure,_shortened": "as §1"}, "Vandetanib + Pemetrexed": {"compound": "COc1cc2/c(=N/c3ccc(Br)cc3F)nc[nH]c2cc1OCC1CCN(C)CC1 [Vandetanib] + Nc1nc2[nH]cc(CCc3ccc(C(=O)N[C@@H](CCC(=O)O)C(=O)O)cc3)c2c(=O)[nH]1 [Pemetrexed] (partner 0.2 µM)", "procedure,_shortened": "as §1"}},
  "data": [
    {"cell line": "UMC-11", "values": [
      {"measurement": "relative viability", "setting": "CUDC-101 + Foretinib; first compound 0.01 µM", "result": 1.06},
      {"measurement": "relative viability", "setting": "CUDC-101 + Foretinib; first compound 0.03162 µM", "result": 1.03},
      {"measurement": "relative viability", "setting": "CUDC-101 + Foretinib; first compound 0.1 µM", "result": 0.945},
      {"measurement": "relative viability", "setting": "CUDC-101 + Foretinib; first compound 0.3162 µM", "result": 0.317},
      {"measurement": "relative viability", "setting": "CUDC-101 + Foretinib; first compound 1 µM", "result": 0.106},
      {"measurement": "relative viability", "setting": "[1]; first compound 0.005 µM", "result": 0.902},
      {"measurement": "relative viability", "setting": "[1]; first compound 0.01581 µM", "result": 0.877},
      {"measurement": "relative viability", "setting": "[1]; first compound 0.05 µM", "result": 0.843},
      {"measurement": "relative viability", "setting": "[1]; first compound 0.1581 µM", "result": 1.59},
      {"measurement": "relative viability", "setting": "[1]; first compound 0.5 µM", "result": 0.901},
      {"measurement": "relative viability", "setting": "NVP-TAE684 + Lapatinib; first compound 0.2 µM", "result": 1.03},
      {"measurement": "relative viability", "setting": "NVP-TAE684 + Lapatinib; first compound 0.6325 µM", "result": 0.778},
      {"measurement": "relative viability", "setting": "NVP-TAE684 + Lapatinib; first compound 2 µM", "result": 0.683},
      {"measurement": "relative viability", "setting": "Vandetanib + Pemetrexed; first compound 0.02 µM", "result": 0.764},
      {"measurement": "relative viability", "setting": "Vandetanib + Pemetrexed; first compound 0.06325 µM", "result": 0.799},
      {"measurement": "relative viability", "setting": "Vandetanib + Pemetrexed; first compound 0.2 µM", "result": 0.801},
      {"measurement": "relative viability", "setting": "Vandetanib + Pemetrexed; first compound 0.6325 µM", "result": 0.721},
      {"measurement": "relative viability", "setting": "Vandetanib + Pemetrexed; first compound 2 µM", "result": 0.667}
    ]}
  ]
}
